According to patent publication US8217013B2, “Polyene diester antibiotics” (priority 2007, dated 2012):

Columns and labels:
Assay in all cases: Test of antibacterial activity in vitro (bacteria-inhibition zone)
Assay type in all cases: cell-based
Settings in all cases: 5.6 μg/ml after conversion
Candida albicans = test system: Candida albicans
Source text: (§1) Test of Antibacterial Activity In Vitro
(§2) Experiment drugs: the polyene diester compounds prepared by examples 1-12
(§3) Control drugs: amphotericin B (standard product) • mycostatin (standard product) • natamycin (standard product)
2.1 Preparation of Candida albicans suspension: PHARMACOPOEIA OF THE PEOPLES REPUBLIC OF CHINA, second part, 2005 edition, appendix p 81-84.
(§4) Taking appropriate amount of the above mentioned amphotericin B, mycostatin, natamycin and the polyene diester compounds prepared by examples 1-8 and 10-12, dissolving in a little dimethyl sulfoxide respectively, using pH7 phosphate buffer to dilute into solution which is equivalent to contain amphotericin B, mycostatin, natamycin 280 Units per milliliter, taking 1 ml and using pH7 phosphate buffer to quantitatively dilute into solution which is equivalent to contain amphotericin B 1.4 μg/ml and 2.8 μg/ml, and is equivalent to contain 5.6 μg/ml of mycostatin and natamycin.
(§5) In addition, preparing the solution according to the same method, adding 40% defibered sheep serum, using pH7 phosphate buffer to quantitatively dilute into unit solution which is equivalent to contain amphotericin B 1.4 μg/ml and 2.8 μg/ml, and is equivalent to contain 5.6 μg/ml of mycostatin and natamycin. Testing according to PHARMACOPOEIA OF THE PEOPLES REPUBLIC OF CHINA, second part, 2005 edition, appendix XIA The Antibiotics Microorganism Test.
(§6) Medium: Improved Martin Agar Medium, PHARMACOPOEIA OF THE PEOPLES REPUBLIC OF CHINA, second part, 2005 edition, appendix p 84.
Test method: Double-plate counting method; […] bacteria bed 15 ml to replace the double layers, culture temperature: 37° C., time: 24 h; strain concentration: 1% […]

Candida mycoderma = test system: Candida mycoderma
Source text: as §1, §2, §3
2.3 Preparation of Candida mycoderrna suspension: the method is as same as preparation of Saccharomyces cerevisiae suspension
as §4, §5, §6
(§7) Test method: Double-plate counting method; […] bacteria bed 15 ml to replace the double layers, culture temperature: 37° C., time: 24 h; strain concentration: 1%
(§8) Medium: Modified Martin Broth Medium

Saccharomyces cerevisiae = test system: Saccharomyces cerevisiae
Source text: as §1, §2, §3
2.2 Preparation of Saccharomyces cerevisiae suspension: PHARMACOPOEIA OF THE PEOPLES REPUBLIC OF CHINA, second part, 2005 edition, appendix p 80, p 83.
as §4, §5, §6, §7, §8

[1] = serum added (40% defibered sheep serum)

CCOC(=O)OC(C)OC(=O)[C@H]1[C@@H]2C[C@@H](O[C@@H]3OC(C)[C@@H](O)[C@@H](N)[C@H]3O)/C=C/C=C/C=C/C=C/C[C@@H](C)OC(=O)/C=C/[C@H]3O[C@@H]3C[C@H](O)C[C@](O)(C[C@@H]1O)O2 (some centres unmarked) [natamycin ethoxycarbonyloxyethyl ester]
diameter of the bacteria-inhibition zone, Candida albicans 0 h (Candida albicans; no serum): + (7-9 mm: +)
diameter of the bacteria-inhibition zone, Candida albicans 0 h (Candida albicans; [1]): + (7-9 mm: +)
diameter of the bacteria-inhibition zone, Candida albicans 6 h (Candida albicans; no serum): + (7-9 mm: +)
diameter of the bacteria-inhibition zone, Candida albicans 6 h (Candida albicans; [1]): ++ (9-12 mm: ++)
diameter of the bacteria-inhibition zone, Candida albicans 24 h (Candida albicans; no serum): + (7-9 mm: +)
diameter of the bacteria-inhibition zone, Candida albicans 24 h (Candida albicans; [1]): ++ (9-12 mm: ++)
diameter of the bacteria-inhibition zone, Candida albicans 48 h (Candida albicans; no serum): + (7-9 mm: +)
diameter of the bacteria-inhibition zone, Candida albicans 48 h (Candida albicans; [1]): ++ (9-12 mm: ++)
diameter of the bacteria-inhibition zone, Candida mycoderma 0 h (Candida mycoderma; no serum): + (7-9 mm: +)
diameter of the bacteria-inhibition zone, Candida mycoderma 0 h (Candida mycoderma; [1]): + (7-9 mm: +)
diameter of the bacteria-inhibition zone, Candida mycoderma 6 h (Candida mycoderma; no serum): + (7-9 mm: +)
diameter of the bacteria-inhibition zone, Candida mycoderma 6 h (Candida mycoderma; [1]): ++ (9-12 mm: ++)
diameter of the bacteria-inhibition zone, Candida mycoderma 24 h (Candida mycoderma; 24 h, no serum): + (7-9 mm: +)
diameter of the bacteria-inhibition zone, Candida mycoderma 48 h (Candida mycoderma; 48 h, no serum): + (7-9 mm: +)
diameter of the bacteria-inhibition zone, Saccharomyces cerevisiae 0 h (Saccharomyces cerevisiae; no serum): + (7-9 mm: +)
diameter of the bacteria-inhibition zone, Saccharomyces cerevisiae 0 h (Saccharomyces cerevisiae; [1]): + (7-9 mm: +)
diameter of the bacteria-inhibition zone, Saccharomyces cerevisiae 6 h (Saccharomyces cerevisiae; no serum): + (7-9 mm: +)
diameter of the bacteria-inhibition zone, Saccharomyces cerevisiae 6 h (Saccharomyces cerevisiae; [1]): ++ (9-12 mm: ++)
diameter of the bacteria-inhibition zone, Saccharomyces cerevisiae 24 h (Saccharomyces cerevisiae; 24 h, no serum): + (7-9 mm: +)
diameter of the bacteria-inhibition zone, Saccharomyces cerevisiae 48 h (Saccharomyces cerevisiae; 48 h, no serum): + (7-9 mm: +)
